Results taken from ChEMBL document CHEMBL1201861, “Genomics of Drug Sensitity in Cancer screening data, Wellcome Trust Sanger Institute”.

Assays:
Test in all cases: cells
[1] = system: ASPC1; type: functional, cell-based, Homo sapiens; conditions: Homo sapiens, ASPC1;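 also: growth inhibition of AsPC-1 cells, read out with a cell viability assay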
Description: SANGER: Inhibition of human AsPC-1 cell growth in a cell viability assay.

[2] = system: BFTC-909; type: functional, cell-based, Homo sapiens; conditions: Homo sapiens, BFTC-909
Description: SANGER: Inhibition of human BFTC-909 cell growth in a cell viability assay.

[3] = system: KGN; type: functional, cell-based, Homo sapiens; conditions: Homo sapiens, KGN;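 also: growth inhibition of KGN cells, read out with a cell viability assay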
Description: SANGER: Inhibition of human KGN cell growth in a cell viability assay.

[4] = system: SK-MEL-1; type: functional, cell-based; conditions: Homo sapiens;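 also: growth inhibition of human SK-MEL-1 cells, read out by a cell viability assay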
Description: SANGER: Inhibition of human SK-MEL-1 cell growth in a cell viability assay.

[5] = system: OCI-AML2; type: functional, cell-based; conditions: Homo sapiens;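 also: growth inhibition of OCI-AML2 cells, read out with a cell viability assay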
Description: SANGER: Inhibition of human OCI-AML2 cell growth in a cell viability assay.

[6] = system: MDA-MB-231; type: functional, cell-based, Homo sapiens; conditions: Homo sapiens, MDA-MB-231
Description: SANGER: Inhibition of human MDA-MB-231 cell growth in a cell viability assay.

[7] = system: FaDu; type: functional, cell-based, Homo sapiens; conditions: Homo sapiens, FaDu;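 also: cell viability readout of growth inhibition in FaDu cells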
Description: SANGER: Inhibition of human FADU cell growth in a cell viability assay.

[8] = system: LNCaP-Clone-FGC; type: functional, cell-based, Homo sapiens; conditions: Homo sapiens, LNCaP-Clone-FGC
Description: SANGER: Inhibition of human LNCaP-Clone-FGC cell growth in a cell viability assay.

[9] = system: DOHH-2; type: functional, cell-based; conditions: Homo sapiens;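 also: growth inhibition of human DOHH-2 cells, read out with a cell viability assay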
Description: SANGER: Inhibition of human DOHH-2 cell growth in a cell viability assay.

[10] = system: SK-MES-1; type: functional, cell-based, Homo sapiens; conditions: Homo sapiens, SK-MES-1;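 also: growth inhibition of human SK-MES-1 cells, read out with a cell viability assay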
Description: SANGER: Inhibition of human SK-MES-1 cell growth in a cell viability assay.

[11] = system: MOLT-4; type: functional, cell-based; conditions: Homo sapiens;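 also: growth inhibition of MOLT-4 cells, determined with a cell viability readout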
Description: SANGER: Inhibition of human MOLT-4 cell growth in a cell viability assay.

[12] = system: ACHN; type: functional, cell-based, Homo sapiens; conditions: Homo sapiens, ACHN;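 also: cell viability read-out used to gauge how strongly growth of human ACHN cells is suppressed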
Description: SANGER: Inhibition of human ACHN cell growth in a cell viability assay.

[13] = system: 8305C; type: functional, cell-based, Homo sapiens; conditions: Homo sapiens, 8305C
Description: SANGER: Inhibition of human 8305C cell growth in a cell viability assay.

[14] = system: SF-539; type: functional, cell-based, Homo sapiens; conditions: Homo sapiens, SF-539;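 also: Read-out is a cell viability assay, with IC50 reflecting inhibition of cell growth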
Description: SANGER: Inhibition of human SF539 cell growth in a cell viability assay.

[15] = system: HT-3; type: functional, cell-based, Homo sapiens; conditions: Homo sapiens, HT-3;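 also: growth inhibition measured with a cell viability readout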
Description: SANGER: Inhibition of human HT-3 cell growth in a cell viability assay.

[16] = system: LS-123; type: functional, cell-based, Homo sapiens; conditions: Homo sapiens, LS-123
Description: SANGER: Inhibition of human LS-123 cell growth in a cell viability assay.

[17] = system: HCC1419; type: functional, cell-based, Homo sapiens; conditions: Homo sapiens, HCC1419;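 also: growth inhibition of human HCC1419 cells, read out as cell viability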
Description: SANGER: Inhibition of human HCC1419 cell growth in a cell viability assay.

[18] = system: HO-1-N-1; type: functional, cell-based, Homo sapiens; conditions: Homo sapiens, HO-1-N-1;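 also: growth inhibition of human HO-1-N-1 cells, read out with a cell viability assay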
Description: SANGER: Inhibition of human HO-1-N-1 cell growth in a cell viability assay.

[19] = system: C2BBe1; type: functional, cell-based, Homo sapiens; conditions: Homo sapiens, C2BBe1;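 also: growth inhibition of C2BBe1 cells, read out through a viability assay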
Description: SANGER: Inhibition of human C2BBe1 cell growth in a cell viability assay.

[20] = system: RPMI-7951; type: functional, cell-based, Homo sapiens; conditions: Homo sapiens, RPMI-7951
Description: SANGER: Inhibition of human RPMI-7951 cell growth in a cell viability assay.

[21] = system: HEC-1; type: functional, cell-based, Homo sapiens; conditions: Homo sapiens, HEC-1;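 also: growth inhibition of the cell line, read out with a cell viability assay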
Description: SANGER: Inhibition of human HEC-1 cell growth in a cell viability assay.

[22] = system: G-402; type: functional, cell-based, Homo sapiens; conditions: Homo sapiens, G-402
Description: SANGER: Inhibition of human G-402 cell growth in a cell viability assay.

[23] = system: NTERA-2-cl-D1; type: functional, cell-based, Homo sapiens; conditions: Homo sapiens, NTERA-2-cl-D1;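 also: inhibition of cell growth, measured with a cell viability assay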
Description: SANGER: Inhibition of human NTERA-S-cl-D1 cell growth in a cell viability assay.

[24] = system: BT-20; type: functional, cell-based, Homo sapiens; conditions: Homo sapiens, BT-20;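 also: cell viability assay measuring suppression of growth in human BT-20 cells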
Description: SANGER: Inhibition of human BT-20 cell growth in a cell viability assay.

[25] = system: HCC2218; type: functional, cell-based; conditions: Homo sapiens;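 also: cell viability assay read-out, with IC50 given as the concentration that inhibits growth of the cell line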
Description: SANGER: Inhibition of human HCC2218 cell growth in a cell viability assay.

[26] = system: EW-3; type: functional, cell-based; conditions: Homo sapiens;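 also: cell viability assay read-out, IC50 reflects inhibition of growth of the EW-3 cells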
Description: SANGER: Inhibition of human EW-3 cell growth in a cell viability assay.

[27] = system: Mo; type: functional, cell-based; conditions: Homo sapiens
Description: SANGER: Inhibition of human Mo-T cell growth in a cell viability assay.

[28] = system: HCT-116; type: functional, cell-based, Homo sapiens; conditions: Homo sapiens, HCT-116
Description: SANGER: Inhibition of human HCT-116 cell growth in a cell viability assay.

[29] = system: DOK; type: functional, cell-based, Homo sapiens; conditions: Homo sapiens, DOK;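 also: cell viability assay read-out, values reflect inhibition of cell growth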
Description: SANGER: Inhibition of human DOK cell growth in a cell viability assay.

[30] = system: SNU-5; type: functional, cell-based; conditions: Homo sapiens;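 also: cell viability readout used to measure growth inhibition in human NCI-SNU-5 cells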
Description: SANGER: Inhibition of human NCI-SNU-5 cell growth in a cell viability assay.

[31] = system: EM-2; type: functional, cell-based; conditions: Homo sapiens;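 also: growth inhibition of EM-2 cells, read out with a cell viability assay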
Description: SANGER: Inhibition of human EM-2 cell growth in a cell viability assay.

[32] = system: CW-2; type: functional, cell-based, Homo sapiens; conditions: Homo sapiens, CW-2;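 also: growth inhibition of CW-2 cells, read out by a cell viability assay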
Description: SANGER: Inhibition of human CW-2 cell growth in a cell viability assay.

[33] = system: LB831-BLC; type: functional, cell-based, Homo sapiens; conditions: Homo sapiens, LB831-BLC;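 also: growth inhibition of LB831-BLC cells, read out with a cell viability assay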
Description: SANGER: Inhibition of human LB831-BLC cell growth in a cell viability assay.

[34] = system: MC116; type: functional, cell-based; conditions: Homo sapiens;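 also: growth inhibition of MC116 cells, read out with a cell viability assay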
Description: SANGER: Inhibition of human MC116 cell growth in a cell viability assay.

[35] = system: no-10; type: functional, cell-based, Homo sapiens; conditions: Homo sapiens;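 also: growth inhibition of no-10 cells, read out with a cell viability assay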
Description: SANGER: Inhibition of human no-10 cell growth in a cell viability assay.

[36] = system: HuP-T3; type: functional, cell-based, Homo sapiens; conditions: Homo sapiens, HuP-T3;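 also: HuP-T3 cell growth inhibition, read out with a cell viability assay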
Description: SANGER: Inhibition of human HuP-T3 cell growth in a cell viability assay.

[37] = system: VM-CUB-1; type: functional, cell-based; conditions: Homo sapiens;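 also: cell viability assay measuring growth inhibition of the human VM-CUB-1 cell line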
Description: SANGER: Inhibition of human VM-CUB-1 cell growth in a cell viability assay.

[38] = system: YAPC; type: functional, cell-based, Homo sapiens; conditions: Homo sapiens, YAPC;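 also: growth inhibition of YAPC cells, measured with a cell viability assay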
Description: SANGER: Inhibition of human YAPC cell growth in a cell viability assay.

[39] = system: CAS-1; type: functional, cell-based, Homo sapiens; conditions: Homo sapiens, CAS-1;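 also: growth inhibition of CAS-1 cells, measured with a cell viability assay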
Description: SANGER: Inhibition of human CAS-1 cell growth in a cell viability assay.

[40] = system: MFM-223; type: functional, cell-based, Homo sapiens; conditions: Homo sapiens, MFM-223
Description: SANGER: Inhibition of human MFM-223 cell growth in a cell viability assay.

[41] = system: A673; type: functional, cell-based, Homo sapiens; conditions: Homo sapiens, A673;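 also: growth inhibition of human A673 cells, read out through a cell viability assay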
Description: SANGER: Inhibition of human A673 cell growth in a cell viability assay.

[42] = system: KM12; type: functional, cell-based, Homo sapiens; conditions: Homo sapiens, KM12;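 also: KM12 cell growth inhibition, read out with a cell viability assay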
Description: SANGER: Inhibition of human KM12 cell growth in a cell viability assay.

[43] = system: A204; type: functional, cell-based, Homo sapiens; conditions: Homo sapiens, A204;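 also: growth inhibition of human A204 cells, read out with a cell viability assay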
Description: SANGER: Inhibition of human A204 cell growth in a cell viability assay.

[44] = system: CAL-54; type: functional, cell-based, Homo sapiens; conditions: Homo sapiens, CAL-54;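 also: growth inhibition of CAL-54 cells, read out by a viability measurement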
Description: SANGER: Inhibition of human CAL-54 cell growth in a cell viability assay.

[45] = system: GT3TKB; type: functional, cell-based, Homo sapiens; conditions: Homo sapiens, GT3TKB;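 also: growth inhibition of the cell line, read out with a cell viability assay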
Description: SANGER: Inhibition of human GT3TKB cell growth in a cell viability assay.

[46] = system: NCI-H2087; type: functional, cell-based, Homo sapiens; conditions: Homo sapiens, NCI-H2087;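 also: growth inhibition determined with a cell viability readout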
Description: SANGER: Inhibition of human NCI-H2087 cell growth in a cell viability assay.

[47] = system: NCI-H1693; type: functional, cell-based, Homo sapiens; conditions: Homo sapiens, NCI-H1693;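 also: growth inhibition of the human cell line, read out with a cell viability assay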
Description: SANGER: Inhibition of human NCI-H1693 cell growth in a cell viability assay.

[48] = system: T98G; type: functional, cell-based, Homo sapiens; conditions: Homo sapiens, T98G;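 also: growth inhibition of T98G cells, read out by a cell viability assay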
Description: SANGER: Inhibition of human T98G cell growth in a cell viability assay.

[49] = system: SK-MEL-2; type: functional, cell-based, Homo sapiens; conditions: Homo sapiens, SK-MEL-2;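 also: growth inhibition of human SK-MEL-2 cells measured with a cell viability assay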
Description: SANGER: Inhibition of human SK-MEL-2 cell growth in a cell viability assay.

[50] = system: SK-NEP-1; type: functional, cell-based; conditions: Homo sapiens;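 also: growth inhibition of human SK-NEP-1 cells, read out by a cell viability assay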
Description: SANGER: Inhibition of human SK-NEP-1 cell growth in a cell viability assay.

[51] = system: HGC-27; type: functional, cell-based, Homo sapiens; conditions: Homo sapiens, HGC-27;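 also: growth inhibition of human HGC-27 cells, read out in a cell viability assay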
Description: SANGER: Inhibition of human HGC-27 cell growth in a cell viability assay.

`COc1cc(F)c(F)c(Nc2ccc(I)cc2F)c1NS(=O)(=O)C1(CC(O)CO)CC1` (stereo not drawn) gave an IC50 [1] of 1.07 µM, an IC50 [2] of over 5 µM and an IC50 [3] of 2.8 µM. The IC50 [4] was over 5 µM, the IC50 [5] was over 5 µM and the IC50 [6] was 1.12 µM. The IC50 [7] was over 5 µM, the IC50 [8] was over 5 µM and the IC50 [9] was over 5 µM. The IC50 [10] was 1.35 µM, the IC50 [11] was over 5 µM and the IC50 [12] was over 5 µM. The IC50 [13] was 1.29 µM, the IC50 [14] was 2.21 µM and the IC50 [15] was over 5 µM. It also gave an IC50 [16] of 2.51 µM, an IC50 [17] of over 5 µM and an IC50 [18] of 0.591 µM. For the same compound, the IC50 [19] was 0.559 µM, the IC50 [20] was 0.761 µM and the IC50 [21] was over 5 µM. The IC50 [22] was over 5 µM, the IC50 [23] was over 5 µM and the IC50 [24] was over 5 µM. For the same compound, the IC50 [25] was over 5 µM, the IC50 [26] was 0.103 µM and the IC50 [27] was over 5 µM. For the same compound, the IC50 [28] was 0.524 µM, the IC50 [29] was 0.432 µM and the IC50 [30] was 4.51 µM. For the same compound, the IC50 [31] was over 5 µM, the IC50 [32] was over 5 µM and the IC50 [33] was over 5 µM. The IC50 [34] was over 5 µM, the IC50 [35] was over 5 µM and the IC50 [36] was over 5 µM. It also gave an IC50 [37] of 3.65 µM, an IC50 [38] of over 5 µM and an IC50 [39] of over 5 µM. The IC50 [40] was over 5 µM, the IC50 [41] was over 5 µM and the IC50 [42] was over 5 µM. It also gave an IC50 [43] of over 5 µM, an IC50 [44] of over 5 µM and an IC50 [45] of over 5 µM. For the same compound, the IC50 [46] was 2.42 µM, the IC50 [47] was over 5 µM and the IC50 [48] was over 5 µM. It also gave an IC50 [49] of 0.101 µM, an IC50 [50] of over 5 µM and an IC50 [51] of over 5 µM.

In the case of `C[C@]1(O)C[C@@H](c2nc(-c3ccc4ccc(-c5ccccc5)nc4c3)c3c(N)nccn32)C1` [LINSITINIB], the IC50 [1] is reported as over 2.56 µM, the IC50 [2] is reported as over 2.56 µM and the IC50 [3] is reported as over 2.56 µM. It also gave an IC50 [4] of over 2.56 µM, an IC50 [5] of over 2.56 µM and an IC50 [6] of over 2.56 µM. It also gave an IC50 [7] of over 2.56 µM, an IC50 [8] of over 2.56 µM and an IC50 [9] of over 2.56 µM. For the same compound, the IC50 [10] was over 2.56 µM, the IC50 [11] was over 2.56 µM and the IC50 [12] was over 2.56 µM. It also gave an IC50 [13] of over 2.56 µM, an IC50 [14] of over 2.56 µM and an IC50 [15] of over 2.56 µM. It also gave an IC50 [16] of over 2.56 µM, an IC50 [17] of over 2.56 µM and an IC50 [18] of over 2.56 µM. The IC50 [19] was over 2.56 µM, the IC50 [20] was over 2.56 µM and the IC50 [21] was over 2.56 µM. The IC50 [22] was over 2.56 µM, the IC50 [23] was over 2.56 µM and the IC50 [24] was over 2.56 µM. For the same compound, the IC50 [25] was over 2.56 µM, the IC50 [26] was 2.1 µM and the IC50 [27] was over 2.56 µM. For the same compound, the IC50 [28] was over 2.56 µM, the IC50 [29] was 0.556 µM and the IC50 [30] was over 2.56 µM. The IC50 [31] was over 2.56 µM, the IC50 [32] was over 2.56 µM and the IC50 [33] was over 2.56 µM. For the same compound, the IC50 [34] was over 2.56 µM, the IC50 [35] was over 2.56 µM and the IC50 [36] was over 2.56 µM. The IC50 [37] was over 2.56 µM, the IC50 [38] was over 2.56 µM and the IC50 [39] was over 2.56 µM. For the same compound, the IC50 [40] was over 2.56 µM, the IC50 [41] was over 2.56 µM and the IC50 [42] was over 2.56 µM. For the same compound, the IC50 [43] was over 2.56 µM, the IC50 [44] was over 2.56 µM and the IC50 [45] was over 2.56 µM. The IC50 [46] was over 2.56 µM, the IC50 [47] was over 2.56 µM and the IC50 [48] was over 2.56 µM. The IC50 [49] was over 2.56 µM, the IC50 [50] was 0.602 µM and the IC50 [51] was over 2.56 µM.

For `COc1ccc(-c2ccc3c(N4CCOC[C@@H]4C)nc(N4CCOC[C@@H]4C)nc3n2)cc1CO` [AZD-8055], the IC50 [1] was 0.738 µM, the IC50 [2] was 1.29 µM and the IC50 [3] was 0.61 µM. The IC50 [4] was over 2 µM, the IC50 [5] was over 2 µM and the IC50 [6] was 1.72 µM. It also gave an IC50 [7] of over 2 µM, an IC50 [8] of 0.353 µM and an IC50 [9] of 0.793 µM. For the same compound, the IC50 [10] was 0.438 µM, the IC50 [11] was 0.677 µM and the IC50 [12] was 1.91 µM. For the same compound, the IC50 [13] was 0.708 µM, the IC50 [14] was 1.58 µM and the IC50 [15] was 1.66 µM. For the same compound, the IC50 [16] was 1.25 µM, the IC50 [17] was 0.869 µM and the IC50 [18] was 0.681 µM. For the same compound, the IC50 [19] was 1.17 µM, the IC50 [20] was 0.735 µM and the IC50 [21] was 1.18 µM. It also gave an IC50 [22] of 0.0998 µM, an IC50 [23] of 0.701 µM and an IC50 [24] of 1.22 µM. For the same compound, the IC50 [25] was 0.207 µM, the IC50 [26] was 0.0406 µM and the IC50 [27] was over 2 µM. The IC50 [28] was 1.43 µM, the IC50 [29] was 0.513 µM and the IC50 [30] was over 2 µM. For the same compound, the IC50 [31] was 0.342 µM, the IC50 [32] was over 2 µM and the IC50 [33] was 1.39 µM. The IC50 [34] was over 2 µM, the IC50 [35] was over 2 µM and the IC50 [36] was over 2 µM. For the same compound, the IC50 [37] was 0.473 µM, the IC50 [38] was over 2 µM and the IC50 [39] was over 2 µM. It also gave an IC50 [40] of 0.426 µM, an IC50 [41] of over 2 µM and an IC50 [42] of 1.8 µM. For the same compound, the IC50 [43] was 0.19 µM, the IC50 [44] was 1.83 µM and the IC50 [45] was over 2 µM. It also gave an IC50 [46] of over 2 µM, an IC50 [47] of 1.98 µM and an IC50 [48] of 1.01 µM. It also gave an IC50 [49] of 0.642 µM, an IC50 [50] of 0.625 µM and an IC50 [51] of 0.264 µM.
